# Source: patent publication US7011846B2, “Oral capsule formulation with increased physical stability” (Shire Laboratories, Inc., priority 2001, dated 2006)
# Assay: Capsule shell integrity with NMP alone or NMP:stabilizing agent 1:1 (wt/wt), banded capsules, observed for leakage and shell cracking
# Assay type: physicochemical
# Details: NMP alone filled into size 0 hard gelatin capsule
# Method: NMP was filled into a size 0 hard gelatin capsule in order to determine the effect of NMP on the integrity of the shell.
# To stabilize the capsule shell in presence of solution of NMP, various capsule stabilizing agents were studied for their stability inducing properties. Stabilizing agents were each incorporated into NMP separately. Formulations were prepared by mixing or dissolving each excipient in a vial containing NMP with a 1:1 ratio (wt/wt). The solutions were then encapsulated into size 0 hard gelatin capsules and banded to prevent leakage of the fill contents. Capsules were stored at ambient environment and observations were made at regular time intervals for leakage and capsule shell cracking.
structure (smiles),measurement,value
"CN1CCCC1=O [#1, N-methyl-2-pyrrolidone]",Effect of NMP on the integrity of the capsule shell,"Within minutes, the capsule cracked causing the content to leak out"
